Data reported in US20260001922A1, “PEPTIDES TARGETING SODIUM CHANNELS TO TREAT PAIN” (priority 2022, published 2026).
Positions of bridges follow the written chain, without caps; N, C: chain ends. Non-standard residues stand in square brackets, D forms with d. Residues, ends and D or L forms follow the SMILES beside them. Agb = N=C(N)NCC[C@H](N)C(=O)O

How the values were obtained:
[1] = target: human Nav1.7 (Homo sapiens, UniProt Q15858); experiment: cell-based; conditions: for IC50: whole-cell voltage clamp, HEK 293 cells, read-out: hNav1.7 IC50
Sequence of human Nav1.7 (Q15858 whole entry): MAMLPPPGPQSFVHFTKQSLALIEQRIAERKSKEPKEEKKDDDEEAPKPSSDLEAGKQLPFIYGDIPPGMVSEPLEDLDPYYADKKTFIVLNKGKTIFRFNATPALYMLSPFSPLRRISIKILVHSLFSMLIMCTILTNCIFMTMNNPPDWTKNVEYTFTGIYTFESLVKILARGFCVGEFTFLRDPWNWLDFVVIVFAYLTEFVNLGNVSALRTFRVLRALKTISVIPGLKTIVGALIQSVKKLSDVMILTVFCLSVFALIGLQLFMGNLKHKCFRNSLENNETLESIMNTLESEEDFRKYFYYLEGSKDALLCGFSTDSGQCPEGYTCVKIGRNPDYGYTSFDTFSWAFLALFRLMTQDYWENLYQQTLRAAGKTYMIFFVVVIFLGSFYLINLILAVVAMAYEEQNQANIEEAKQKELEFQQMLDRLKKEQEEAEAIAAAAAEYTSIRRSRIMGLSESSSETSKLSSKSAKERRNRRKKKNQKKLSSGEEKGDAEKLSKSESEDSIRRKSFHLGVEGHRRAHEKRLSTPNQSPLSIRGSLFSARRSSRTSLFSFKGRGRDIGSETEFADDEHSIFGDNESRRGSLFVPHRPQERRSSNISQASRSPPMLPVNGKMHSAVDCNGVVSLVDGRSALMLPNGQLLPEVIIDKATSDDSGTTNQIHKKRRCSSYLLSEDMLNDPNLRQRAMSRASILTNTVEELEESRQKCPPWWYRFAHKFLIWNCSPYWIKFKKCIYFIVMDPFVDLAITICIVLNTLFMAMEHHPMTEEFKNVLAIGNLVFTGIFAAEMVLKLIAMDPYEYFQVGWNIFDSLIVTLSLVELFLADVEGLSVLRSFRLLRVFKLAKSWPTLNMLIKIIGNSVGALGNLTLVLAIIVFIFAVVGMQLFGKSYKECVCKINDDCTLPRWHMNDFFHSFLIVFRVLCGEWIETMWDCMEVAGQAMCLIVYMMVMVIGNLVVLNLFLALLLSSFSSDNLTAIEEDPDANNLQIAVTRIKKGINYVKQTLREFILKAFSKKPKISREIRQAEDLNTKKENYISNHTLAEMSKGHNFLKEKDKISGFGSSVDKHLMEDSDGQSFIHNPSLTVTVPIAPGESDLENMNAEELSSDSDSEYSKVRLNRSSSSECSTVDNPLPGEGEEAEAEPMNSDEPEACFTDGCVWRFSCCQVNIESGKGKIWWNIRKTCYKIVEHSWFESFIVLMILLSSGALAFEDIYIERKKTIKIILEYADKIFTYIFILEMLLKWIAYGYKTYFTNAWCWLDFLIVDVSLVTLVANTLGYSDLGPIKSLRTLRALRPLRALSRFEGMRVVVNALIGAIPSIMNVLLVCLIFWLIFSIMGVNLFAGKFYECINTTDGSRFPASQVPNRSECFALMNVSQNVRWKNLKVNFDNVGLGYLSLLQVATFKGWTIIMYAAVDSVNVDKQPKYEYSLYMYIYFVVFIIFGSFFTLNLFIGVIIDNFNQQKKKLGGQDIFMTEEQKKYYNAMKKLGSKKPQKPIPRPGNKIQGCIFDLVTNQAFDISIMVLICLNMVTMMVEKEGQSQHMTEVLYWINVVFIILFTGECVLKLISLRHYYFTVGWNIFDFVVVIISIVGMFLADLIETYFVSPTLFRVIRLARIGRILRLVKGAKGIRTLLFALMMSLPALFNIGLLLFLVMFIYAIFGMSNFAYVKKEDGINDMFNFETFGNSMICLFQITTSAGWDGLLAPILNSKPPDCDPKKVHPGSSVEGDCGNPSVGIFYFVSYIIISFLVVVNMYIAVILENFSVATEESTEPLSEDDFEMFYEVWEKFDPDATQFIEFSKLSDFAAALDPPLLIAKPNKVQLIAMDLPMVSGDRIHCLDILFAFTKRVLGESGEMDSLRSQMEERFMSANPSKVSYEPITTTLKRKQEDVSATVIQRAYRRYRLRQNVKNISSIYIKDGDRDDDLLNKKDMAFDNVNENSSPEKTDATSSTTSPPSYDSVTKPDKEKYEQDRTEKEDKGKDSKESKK
Description: HEK-293 cells stably expressing human Nav1.1, Nav1.4, Nav1.5, Nav1.6 and Nav1.7 were obtained from Dr. Chris Lossin. Rat Nav1.3 expressing HEK-293 cells were from Dr. Steven Waxman (Yale University, New Haven, CT). These cell lines were cultured in complete DMEM supplemented with 10% FBS, 1% penicillin/streptomycin, and G418. The human Nav1.8 channel (co-expressing with human Navβ1 and Navβ2 subunits) and the Nav1.9 channel (co-expressing with human Trkb, Navβ1, and Navβ2 subunits) were obtained from Icagen (Durham, NC). hNav1.8 cells cultured with G418 (0.4 mg/mL) and puromycin ([…]/mL) and hNav1.9 cells were cultured with G418 (0.4 mg/mL), puromycin ([…]), and zeocin (0.05 mg/mL). Human Nav1.2 were expressed transiently by transfection of the hNav1.2 cDNA (from Dr. Alan L. Goldin, UC Irvine, CA) into HEK-293 cells.
Whole-cell patch-clamp experiments on recombinant channels were conducted manually at room temperature (22-24° C.) using an EPC-10 amplifier (HEKA Electronik, Lambrecht/Pfalz, Germany). Cells were trypsinized and plated onto poly-1-lysine-coated coverslips. All recordings were done in normal Ringer external bath solution containing (in mM) 160 NaCl, 4.5 KCl, 2 CaCl2), 1 MgCl2, 10 HEPES (pH 7.4 and 305 mOsm) as. Patch pipettes were pulled from soda lime glass (micro-hematocrit tubes, Kimble Chase, Rochester, NY) and had resistances of 2-3 MQ when filled with CsF-based internal solution containing (in mM) 10 NaF, 110 CsF, 20 CsCl, 10 HEPES, 2 EGTA, (pH 7.4, 310 mOsm). Data acquisition and analysis were performed with Pulse-PulseFit (HEKA Electronik GmbH, Germany), IgorPro (WaveMetrics, Portland, OR), and Origin 9.0 software (OriginLab Corporation, Northampton, MA). Cells were held at −90 mV and voltage stepped to −120 mV for 200 ms before depolarizing to −10 mV for 50 msec to elicit inward currents. Control test currents were monitored for 5-10 min to ensure that the amplitude and kinetics of the response were stable. Series resistance was compensated to 80-90% and linear leak currents and capacitance artefacts were corrected using a P/4 subtraction method. Pulse interval was 0.1 Hz and peptides were applied to individual cells using a glass transfer pipette directly into the recording bath. For measuring inhibition, currents were allowed to saturate with repeated pulsing before addition of subsequent doses. IC50 values were derived from measurements performed on individual cells that were tested with at least three or more concentrations of each peptide.

[2] = target: human Nav1.5 (Homo sapiens, UniProt Q14524); experiment: in vitro; format: cell-based; conditions: pH 7.4, read-out: block of hNav1.5 current (% inhibition)
[3] = target: human Nav1.4 (Homo sapiens, UniProt P35499); experiment: cell-based; conditions: HEK293, read-out: block of hNav1.4 current (% inhibition)
[4] = target: T1, human Nav1.2 (Homo sapiens, UniProt Q99250); experiment: cell-based; conditions: HEK293, read-out: block of hNav1.2 current (% inhibition)
T1 construct: host or cells: HEK-293 (transient)
T1 sequence (Q99250 whole entry): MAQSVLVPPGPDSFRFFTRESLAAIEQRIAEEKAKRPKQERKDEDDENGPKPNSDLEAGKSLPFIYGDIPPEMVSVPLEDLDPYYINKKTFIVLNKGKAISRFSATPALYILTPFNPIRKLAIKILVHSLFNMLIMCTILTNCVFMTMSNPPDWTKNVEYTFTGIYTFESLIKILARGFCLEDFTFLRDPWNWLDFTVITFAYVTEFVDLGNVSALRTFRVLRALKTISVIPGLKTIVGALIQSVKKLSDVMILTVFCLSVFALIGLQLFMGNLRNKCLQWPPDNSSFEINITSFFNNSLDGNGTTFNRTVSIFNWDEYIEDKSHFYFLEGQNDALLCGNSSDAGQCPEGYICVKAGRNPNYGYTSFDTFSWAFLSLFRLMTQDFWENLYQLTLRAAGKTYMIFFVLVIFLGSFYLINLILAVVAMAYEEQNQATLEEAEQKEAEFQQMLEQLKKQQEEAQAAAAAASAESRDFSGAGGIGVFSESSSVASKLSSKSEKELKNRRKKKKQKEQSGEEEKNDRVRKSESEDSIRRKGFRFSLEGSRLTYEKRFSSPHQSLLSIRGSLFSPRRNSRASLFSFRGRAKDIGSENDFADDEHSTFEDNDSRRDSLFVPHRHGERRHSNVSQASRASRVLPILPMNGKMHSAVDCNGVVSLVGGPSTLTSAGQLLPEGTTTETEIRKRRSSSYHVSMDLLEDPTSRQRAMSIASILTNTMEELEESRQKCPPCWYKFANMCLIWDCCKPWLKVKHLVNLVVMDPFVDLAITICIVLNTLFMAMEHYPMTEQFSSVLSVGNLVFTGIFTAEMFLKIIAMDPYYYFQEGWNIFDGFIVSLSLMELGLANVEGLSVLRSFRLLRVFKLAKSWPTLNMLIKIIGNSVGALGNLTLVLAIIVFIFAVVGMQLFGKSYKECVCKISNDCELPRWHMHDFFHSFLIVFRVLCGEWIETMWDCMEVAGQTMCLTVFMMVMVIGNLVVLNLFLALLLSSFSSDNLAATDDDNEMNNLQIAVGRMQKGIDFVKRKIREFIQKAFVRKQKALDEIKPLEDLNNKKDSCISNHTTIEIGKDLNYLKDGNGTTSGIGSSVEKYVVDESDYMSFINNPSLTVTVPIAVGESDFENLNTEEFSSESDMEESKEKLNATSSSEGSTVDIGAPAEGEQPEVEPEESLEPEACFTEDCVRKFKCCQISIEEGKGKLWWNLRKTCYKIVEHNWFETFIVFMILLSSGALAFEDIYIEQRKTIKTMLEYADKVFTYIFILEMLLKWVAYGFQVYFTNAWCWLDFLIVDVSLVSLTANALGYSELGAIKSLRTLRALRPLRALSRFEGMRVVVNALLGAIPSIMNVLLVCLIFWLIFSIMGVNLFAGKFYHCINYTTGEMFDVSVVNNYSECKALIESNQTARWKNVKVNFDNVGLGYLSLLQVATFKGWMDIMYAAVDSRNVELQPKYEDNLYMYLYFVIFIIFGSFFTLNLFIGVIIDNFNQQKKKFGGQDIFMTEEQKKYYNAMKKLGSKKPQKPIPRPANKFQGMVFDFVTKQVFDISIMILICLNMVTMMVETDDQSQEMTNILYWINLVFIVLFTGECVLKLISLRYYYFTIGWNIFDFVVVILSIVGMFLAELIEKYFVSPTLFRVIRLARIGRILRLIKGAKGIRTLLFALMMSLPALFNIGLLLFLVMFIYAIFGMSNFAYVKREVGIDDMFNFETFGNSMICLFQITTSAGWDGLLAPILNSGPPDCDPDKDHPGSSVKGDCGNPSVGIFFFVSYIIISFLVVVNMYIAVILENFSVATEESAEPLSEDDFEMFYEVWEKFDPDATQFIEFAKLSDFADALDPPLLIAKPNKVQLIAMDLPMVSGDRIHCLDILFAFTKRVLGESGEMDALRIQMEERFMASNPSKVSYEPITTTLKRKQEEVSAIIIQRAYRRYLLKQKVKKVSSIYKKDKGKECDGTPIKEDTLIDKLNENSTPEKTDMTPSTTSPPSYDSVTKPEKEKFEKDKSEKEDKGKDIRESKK

[5] = target: hERG channel (Homo sapiens, UniProt Q12809); experiment: in vitro
[6] = system: rat models of thermal and chemical nociception; parameters: motor effect via intrathecal administration: dose or concentration left out as unconfirmed; conditions: cited from earlier work
[7] = target: hNav1.7 (Homo sapiens, UniProt Q15858); conditions: peptides of the literature; cited from earlier work
Sequence of hNav1.7 (Q15858 whole entry): as the sequence (Q15858 whole entry) above

Q: Which “effect on hNav1.7 currents” value ([1]; at 5 μM) does the source give for CC(C)C[C@@H]1NC(=O)CNC(=O)[C@H](CCC(=O)O)NC(=O)[C@@H]2CSSC[C@H](NC(=O)[C@@H](N)Cc3ccc(O)cc3)C(=O)N[C@@H](CCC(N)=O)C(=O)N[C@@H](CCCCN)C(=O)N[C@@H](C)C(=O)N[C@@H](Cc3ccccc3)C(=O)N[C@@H](Cc3c[nH]c4ccccc34)C(=O)N[C@@H]([C@@H](C)O)C(=O)N[C@H]3CSSC[C@H](NC(=O)[C@H](CCCNC(=N)N)NC1=O)C(=O)N[C@@H](CCNC(=N)N)C(=O)N[C@@H](CC(C)C)C(=O)N[C@@H](Cc1c[nH]c4ccccc14)C(=O)N[C@H](C(=O)N[C@@H](CCCCN)C(=O)N[C@@H](CCCCN)C(=O)N[C@@H](CCC(=O)O)C(=O)N[C@@H](CC(C)C)C(=O)N[C@@H](Cc1c[nH]c4ccccc14)C(N)=O)CSSC[C@H](NC(=O)[C@H](CCCCN)NC(=O)[C@H](CCCNC(=N)N)NC(=O)[C@H](CCC(=O)O)NC(=O)[C@H](CO)NC(=O)[C@H](CC(=O)O)NC3=O)C(=O)N2 [PTx2-2954] here?
A: no effect

Q: With CC(C)C[C@@H]1NC(=O)CNC(=O)[C@H](CCC(=O)O)NC(=O)[C@@H]2CSSC[C@H](NC(=O)[C@@H](N)Cc3ccc(O)cc3)C(=O)N[C@@H](CCC(N)=O)C(=O)N[C@@H](CCCCN)C(=O)N[C@@H](C)C(=O)N[C@@H](Cc3ccccc3)C(=O)N[C@@H](Cc3c[nH]c4ccccc34)C(=O)N[C@@H]([C@@H](C)O)C(=O)N[C@H]3CSSC[C@H](NC(=O)[C@H](CCCNC(=N)N)NC1=O)C(=O)N[C@@H](CCNC(=N)N)C(=O)N[C@@H](CC(C)C)C(=O)N[C@@H](Cc1c[nH]c4ccccc14)C(=O)N[C@H](C(=O)N[C@@H](CCCNC(=N)N)C(=O)N[C@@H](CCCCN)C(=O)N[C@@H](CCC(=O)O)C(=O)N[C@@H](CC(C)C)C(=O)N[C@@H](Cc1c[nH]c4ccccc14)C(N)=O)CSSC[C@H](NC(=O)[C@H](CCCCN)NC(=O)[C@H](CCCNC(=N)N)NC(=O)[C@H](CCC(=O)O)NC(=O)[C@H](CO)NC(=O)[C@H](CC(=O)O)NC3=O)C(=O)N2 [PTx2-2955] as the compound, how does the IC50 [1] read?
A: 185 nM

Q: For CC(C)C[C@@H]1NC(=O)CNC(=O)[C@H](CCC(=O)O)NC(=O)[C@@H]2CSSC[C@H](NC(=O)[C@@H](N)Cc3ccc(O)cc3)C(=O)N[C@@H](CCC(N)=O)C(=O)N[C@@H](CCCCN)C(=O)N[C@@H](C)C(=O)N[C@@H](Cc3ccccc3)C(=O)N[C@@H](Cc3c[nH]c4ccccc34)C(=O)N[C@@H]([C@@H](C)O)C(=O)N[C@H]3CSSC[C@H](NC(=O)[C@H](CCCNC(=N)N)NC1=O)C(=O)N[C@@H](CCNC(=N)N)C(=O)N[C@@H](CC(C)C)C(=O)N[C@@H](Cc1c[nH]c4ccccc14)C(=O)N[C@H](C(=O)N[C@@H](CCCNC(=N)N)C(=O)N[C@@H](CCCCN)C(=O)N[C@@H](CCC(=O)O)C(=O)N[C@@H](CC(C)C)C(=O)N[C@@H](Cc1c[nH]c4ccccc14)C(N)=O)CSSC[C@H](NC(=O)[C@H](CCCCN)NC(=O)[C@H](CCCNC(=N)N)NC(=O)[C@H](C)NC(=O)[C@H](CO)NC(=O)[C@H](CC(=O)O)NC3=O)C(=O)N2 [PTx2-3063] (H-YCQKAFWTCDSARKCCEGLRC[Agb]LWCRKELW-NH2; disulfide 2-16, 9-21, 15-25), which IC50 [1] is on record?
A: 154 nM

Q: For CC(C)C[C@@H]1NC(=O)CNC(=O)[C@H](CCC(=O)O)NC(=O)[C@@H]2CSSC[C@H](NC(=O)[C@@H](N)Cc3ccc(O)cc3)C(=O)N[C@@H](CCC(N)=O)C(=O)N[C@@H](CCCCN)C(=O)N[C@@H](C)C(=O)N[C@@H](Cc3ccccc3)C(=O)N[C@@H](Cc3c[nH]c4ccccc34)C(=O)N[C@@H]([C@@H](C)O)C(=O)N[C@H]3CSSC[C@H](NC(=O)[C@H](CCCNC(=N)N)NC1=O)C(=O)N[C@@H](CCCNC(=N)N)C(=O)N[C@@H](CC(C)C)C(=O)N[C@@H](Cc1c[nH]c4ccccc14)C(=O)N[C@H](C(=O)N[C@@H](CCCNC(=N)N)C(=O)N[C@@H](CCCCN)C(=O)N[C@@H](CCC(=O)O)C(=O)N[C@@H](CC(C)C)C(=O)N[C@@H](Cc1c[nH]c4ccccc14)C(N)=O)CSSC[C@H](NC(=O)[C@H](CCCCN)NC(=O)[C@H](CCCNC(=N)N)NC(=O)[C@H](C)NC(=O)[C@H](CO)NC(=O)[C@H](CC(=O)O)NC3=O)C(=O)N2 [PTx2-3064] (H-YCQKAFWTCDSARKCCEGLRCRLWCRKELW-NH2; disulfide 2-16, 9-21, 15-25), which inhibition at 10 µM [2] is on record?
A: ~25%

Q: What about the inhibition at 10 µM [3] of the same compound?
A: ~66%

Q: And the inhibition at 10 µM [4]?
A: ~92%

Q: With CSCC[C@@H]1NC(=O)[C@H](Cc2c[nH]c3ccccc23)NC(=O)[C@H](CCCCN)NC(=O)[C@H](CCC(N)=O)NC(=O)[C@@H](NC(=O)[C@@H](N)Cc2ccc(O)cc2)CSSC[C@@H]2NC(=O)[C@@H]3CSSC[C@@H](C(=O)N[C@@H](CCCNC(=N)N)C(=O)N[C@@H](CCCCN)C(=O)N[C@@H](CCC(=O)O)C(=O)N[C@@H](CC(C)C)C(=O)N[C@@H](CC(C)C)C(N)=O)NC(=O)[C@H](Cc4c[nH]c5ccccc45)NC(=O)[C@H](CC(C)C)NC(=O)[C@H](CCCNC(=N)N)NC(=O)[C@H](CSSC[C@H](NC(=O)[C@H]([C@@H](C)O)NC(=O)[C@H](CCC(N)=O)NC1=O)C(=O)N[C@@H](CC(=O)O)C(=O)N[C@@H](CCCCN)C(=O)N[C@@H](CC(=O)O)C(=O)N[C@@H](CCCNC(=N)N)C(=O)N[C@@H](CCCCN)C(=O)N3)NC(=O)[C@H](CCCNC(=N)N)NC(=O)[C@H](CC(C)C)NC(=O)CNC(=O)[C@H](CCC(=O)O)NC2=O [PTx2-3066] (H-YCQKWMQTCDKDRKCCEGLRCRLWCRKELL-NH2; disulfide 2-16, 9-21, 15-25) as the compound, how does the IC50 [1] read?
A: 30.8 nM

Q: And the inhibition at 10 µM [2]?
A: ~1%

Q: And the inhibition at 10 µM [3]?
A: ~34%

Q: And the inhibition at 10 µM [4]?
A: ~41%

Q: With CSCC[C@@H]1NC(=O)[C@H](Cc2c[nH]c3ccccc23)NC(=O)[C@H](CCCCN)NC(=O)[C@H](CCC(N)=O)NC(=O)[C@@H](NC(=O)[C@@H](N)Cc2c[nH]cn2)CSSC[C@@H]2NC(=O)[C@@H]3CSSC[C@@H](C(=O)N[C@@H](CCCNC(=N)N)C(=O)N[C@@H](CCCCN)C(=O)N[C@@H](CCC(=O)O)C(=O)N[C@@H](CC(C)C)C(=O)N[C@@H](CC(C)C)C(N)=O)NC(=O)[C@H](Cc4c[nH]c5ccccc45)NC(=O)[C@H](CC(C)C)NC(=O)[C@H](CCCNC(=N)N)NC(=O)[C@H](CSSC[C@H](NC(=O)[C@H]([C@@H](C)O)NC(=O)[C@H](CCC(N)=O)NC1=O)C(=O)N[C@@H](CC(=O)O)C(=O)N[C@@H](CCCCN)C(=O)N[C@@H](CC(=O)O)C(=O)N[C@@H](CCCNC(=N)N)C(=O)N[C@@H](CCCCN)C(=O)N3)NC(=O)[C@H](CCCNC(=N)N)NC(=O)[C@H](Cc1ccccc1)NC(=O)CNC(=O)[C@H](CCC(=O)O)NC2=O [PTx2-3258] as the compound, how does the IC50 [5] read?
A: 1000 nM

Q: Which “effect on nociceptive assays” value ([6]; 0.24 μg i.t., Merck's study) does the source give for CSCC[C@@H]1NC(=O)CNC(=O)[C@H](CCC(=O)O)NC(=O)[C@@H]2CSSC[C@H](NC(=O)[C@@H](N)Cc3ccc(O)cc3)C(=O)N[C@@H](CCC(N)=O)C(=O)N[C@@H](CCCCN)C(=O)N[C@@H](Cc3c[nH]c4ccccc34)C(=O)N[C@@H](CCSC)C(=O)N[C@@H](Cc3c[nH]c4ccccc34)C(=O)N[C@@H]([C@@H](C)O)C(=O)N[C@H]3CSSC[C@H](NC(=O)[C@H](C(C)C)NC1=O)C(=O)N[C@@H](CCCNC(=N)N)C(=O)N[C@@H](CC(C)C)C(=O)N[C@@H](Cc1c[nH]c4ccccc14)C(=O)N[C@H](C(=O)N[C@@H](CCCCN)C(=O)N[C@@H](CCCCN)C(=O)N[C@@H](CCCCN)C(=O)N[C@@H](CC(C)C)C(=O)N[C@@H](Cc1c[nH]c4ccccc14)C(=O)O)CSSC[C@H](NC(=O)[C@H](CCCCN)NC(=O)[C@H](CCCNC(=N)N)NC(=O)[C@H](CCC(=O)O)NC(=O)[C@H](CO)NC(=O)[C@H](CC(=O)O)NC3=O)C(=O)N2 [ProTx-II] here?
A: no effect

Q: And the “motor effect via intrathecal administration” value ([6]; Merck's study)?
A: laming effect

Q: And the maximum tolerated dose ([6]; in 10 μL, rats, Janssen's study)?
A: 2 µg

Q: What about the “analgesic effect following intrathecal injection” value ([6]; rat models of thermal and chemical nociception, Janssen Biotech) of the same compound?
A: strong analgesic effect

Q: With “DCLKFGWKCNPRNDKCCSGLKSGSNHNWCKLHL [ProTx-III]” as the compound, how does the IC50 [7] read?
A: 11.5 nM

Q: With ECQKWMWTCDSARACCEGLRCKLWCRKII [JzTx-V] as the compound, how does the IC50 [7] read?
A: 0.6 nM
